Patent publication US20180325115A1, “PLANT GROWTH REGULATOR COMPOSTION HAVING SYNERGISTIC EFFECT” (JIANGSU HUIFENG BIO AGRICULTURE CO., LTD., priority 2015, published 2018)

Assays:
Format in all cases: in vivo
sorghum = experiment: Comprehensive test on growth regulation for sorghum by thidiazuron combined with brassinolide (plant height, stem diameter, 1000-grain weight, yield); settings: mixtures 4.3 mg/kg, thidiazuron 4 mg/kg
Procedure: (§1) 1. Comprehensive Test on Growth Regulation for Sorghum by Thidiazuron Combined with Brassinolide
(§2) The thidiazuron and brassinolide were diluted with acetone to give a series of concentrations, and the stems and leaves of crops were sprayed to determine the effect of each concentration on crop growth in the field, so as to make a comprehensive evaluation with respect to the plant height and diameter, the root length, the disease resistance, the quality of fruits, and the yield.
Plant height control rate=(Plant height in water control group-Plant height in treatment group)/Plant height in water control group*100%
Stem diameter increase rate=(Stem diameter in water control group-Stem diameter in treatment group)/Stem diameter in water control group*100%
Increase rate in 1000-grain weight=(1000-grain weight in water control group−1000-grain weight in treatment group)/1000-grain weight in water control group*100%
Increase rate in yield per mu=(Yield per mu in water control group−Yield per mu in treatment group)/Yield per mu in water control group*100%

oat = experiment: Comprehensive field test on growth regulation and yield increase for oat by thidiazuron combined with brassinolide; settings: Examples 5.4 mg/kg, thidiazuron 5.0 mg/kg, brassinolide 0.4 mg/kg
Text: (§3) 1. Comprehensive Test on Growth Regulation, Disease Resistance, and Yield Increase for Oat by Thidiazuron Combined with Brassinolide in Field
(§4) Application time: filling stage of oat, because diseases such as powdery mildew easily take place during the earing period.
(§5) Time of application: 1. Formulation examples of the present invention were sprayed, and the results were an average of three replicates.

powdery mildew of oat = experiment: Disease index and prevention effect on powdery mildew in the oat field test; settings: Examples 5.4 mg/kg, thidiazuron 5.0 mg/kg, brassinolide 0.4 mg/kg
Text: as §3, §4, §5

leaf blight of sorghum = experiment: Disease index and prevention effect on leaf blight in the sorghum comprehensive test; settings: early tasselling stage, mixtures 4.3 mg/kg, thidiazuron 4 mg/kg, brassinolide 0.3 mg/kg
Procedure: as §1, §2
Prevention effect=(Disease index in water control group-Disease index in treatment group)/Disease index in water control group*100%

[1] = early tasselling stage, vs water control, brassinolide 0.3 mg/kg
[2] = maturity and harvest period, brassinolide 0.3 mg/kg
[3] = maturity and harvest period, vs water control, brassinolide 0.3 mg/kg

O=C(Nc1ccccc1)Nc1cnns1 [Thidiazuron, thidiazuron]
Plant height (sorghum; early tasselling stage, 2 sprays on stems and leaves, 8 days apart, brassinolide 0.3 mg/kg (active ingredient)): 120.4 cm | Stem diameter (sorghum; early tasselling stage, brassinolide 0.3 mg/kg): 2.56 cm | Control rate (plant height) (sorghum; [1]): 3.4% | Increase rate (stem diameter) (sorghum; [1]): 2.4% | Weight of 1000 grains (sorghum; [2]): 22.1 | Yield (sorghum; [2]): 555.8 kg/667M^2 | Increase rate (weight of 1000 grains) (sorghum; [3]): 3.6% | Increase rate (yield per mu) (sorghum; [3]): 3.5% | Plant height (oat; 1 spray at filling stage, average of three replicates): 120.1 cm | Stem diameter (oat): 2.38 mm | Weight of 1000 grains (oat): 35.73 | Yield (oat): 627.3 667M2 | Control rate (plant height) (oat; vs water control): 4.5% | Increase rate (stem diameter) (oat; vs water control): 3.2% | Increase rate (weight of 1000 grains) (oat; vs water control): 4.2% | Increase rate (yield) (oat; vs water control): 4.3% | Disease index of powdery mildew (powdery mildew of oat): 13.16 | Prevention effect (powdery mildew) (powdery mildew of oat; vs water control): 13.3% | Disease index of leaf blight (leaf blight of sorghum): 10.4 | Prevention effect (leaf blight) (leaf blight of sorghum; vs water control): 24.1%
